Data reported in patent publication US5677296A, “Carbamic acid derivatives of substituted dibenzoxazepine compounds, pharmaceutical compositions and methods of use” (G.D. Searle & Co., priority 1995, dated 1997).

Experiments:
[1] = tested on: prostaglandin E2-induced contractions of guinea pig ileum; test: Prostaglandin (PGE) Antagonism Assay (inhibition of prostaglandin E2-induced contractions of segments of guinea pig ileum); conditions: for PGE2 antagonism in guinea pig ileum: Dose Ratio at 3 × 10^-6 M: test compound 3 × 10^-6 M, 30 min incubation, dose ratio of PGE2 EC50 values, average where more than one determined
Experimental: (b) Prostaglandin (PGE) Antagonism Assay
In order to determine the effectiveness of several of the compounds of the present invention ("test compounds") as prostaglandin E2 antagonists,a prostaglandin antagonism assay was conducted, as described below, to determine the ability of these compounds to inhibit prostaglandin E2 -induced contractions of segments of guinea pig ileum.
Male albino guinea pigs weighing 200 to 500 grams were sacrificed by cervical dislocation. The ilea were then quickly removed from the guinea pigs and placed in a modified Tyrode solution, a solution which is known to those skilled in the art, containing one-half of the usual amount of magnesium ions.
Segments of ileum about 2 cm long were then cut and mounted in a 10 mL tissue bath containing the modified Tyrode solution. The solution was maintained at 37° C. and aerated with a gaseous mixture of 95% oxygen and 5% carbon dioxide. Data for a control prostaglandin E2 dose response curve plotting concentration of prostaglandin E2 versus the intensity of contractions, detected isotonically, was then obtained by experimentally adjusting the dose of the prostaglandin E2 being injected into the tissue bath, in a manner known by those of skill in the art.
Solutions or suspensions containing an initial concentration (3 micromolar) of a test compound in modified Tyrode solution ("test solutions/suspensions") were then separately substituted for the control bath solution. Each test solution/suspension was then kept in constant contact with the ileum tissue, except for brief periods to drain the bath in preparation for rinsing with fresh test solution/suspension. A second prostaglandin E2 dose response curve was then generated for prostaglandin E2 in the presence of a test compound.
A control dose response curve is produced in isolated segments of guinea pig ileum mounted in an automated apparatus with six concentrations of prostaglandin E2. A solution or suspension of test compound is substituted for the control bathing solution and is incubated for thirty minutes. An additional prostaglandin E2 dose response curve is then performed in the presence of the test compound. A dose ratio is calculated from the EC50 values obtained from duplicate replications on each concentration of the test compound.
A dose ratio of EC50 doses was calculated from the results of each test in a manner known by those of skill in the art, and described above.
The dose ratios reported in Table 1 represent an average of multiple dose ratios for those compounds for which more than one dose ratio was determined. The compounds of the present invention which were tested in this assay, and for which results are presented in Table 1, correspond to the particular examples specified in Table 1.
The pA2 value (a statistical constant which is a common measure of expressing the potency of a particular drug as a competitive antagonist), rather than the dose ratio, was calculated for the test compound shown and described in Example 6 by schild plot calculations, as described by H. O. Schild, "pA, A New Scale for the Measurement of Drug Antagonism," Br. J. Pharmacol, 2, 189 (1947), and is reported in Table 1.

[2] = tested on: phenylbenzoquinone (PBQ)-induced writhing in mice; test: Writhing Assay (PBQ-induced writhing in mice, analgesic activity); assay type: in vivo, mouse (Charles River male albino mice); conditions: 30 mpk, i.g., 30 min before PBQ i.p., fraction of mice
Description: The Writhing Assay is one of the most widely-used experimental procedures for measuring the analgesic activity of different narcotic and nonnarcotic analgesic agents, and involves the continuous, chemically-induced pain of visceral origin to an animal, such as a mouse or rat. [Gyires et al., Arch. int. Pharmacodyn, 267, 131-140 (1984); C. Vander Wende et al., Fed. Proc., 15, 494 (1956); Koster et al., Fed. Proc., 18, 412 (1959); and Witken et al., J. Pharmacol. exp. Ther., 133, 400-408 (1961).] Chemicals which may be used to induce this pain include phenylbenzoquinone (PBQ) and acetic acid. As a result of the chemical irritation to the animal, a characteristic stretching and writhing of the animal (dorsiflexion of the animal's back, extension of its hindlimbs and the strong contraction of its abdominal musculature) will generally occur. […] Drugs which reduce the number of writhes of the animal appear to restore the normal nociceptive threshold of the animal.
Charles River male albino mice, weighing 20 to 30 grams, were used in this assay.
Thirty minutes after intragastric administration to ten mice of 30 mg per kilogram of body weight of a compound of the present invention ("test compound"), […] per 10 g of body weight of a 0.025% w/v solution of PBQ was injected intraperitoneally into each mouse. Ten mice which were given saline in place of a test compound of the invention were used as a control group.
Five minutes later, each mouse was individually placed into a glass beaker for observation, and the number of writhes occurring during the following ten-minute period was counted.
A test compound was considered to have produced analgesia in a mouse if, in accordance with the conditions set forth above, and under the test criteria employed for this assay, after the administration of 30 mg per kilogram of body weight of a compound of the present invention to the mouse, the number of writhes elicited by a mouse injected with PBQ was equal to, or less than, one-half the median number of writhes recorded for the saline-treated control group of mice that day, as described by Taber in "Predictive Value of Analgesic Assays in Mice and Rats," Advances in Biochemical Psychopharmacology, 8, 191 (1974).
The results for the particular compounds of the present invention analyzed in this assay, and discussed in the examples identified below which correspond thereto, are presented in Table 1 hereinbelow as fractions under the heading "WRITHING ASSAY." The fractions indicate the number of mice out of eight or ten in which a test compound produced analgesia.
The standard initial screening dose of a test compound employed in this assay was 30 mpk […]. Generally, if this initial screening dose of the test compound produced analgesia in seven out of ten mice, then the effect of additional doses of the test compound on the writhing response was evaluated, and then the ED50 dose was generally calculated. (The slopes of the dose-response curves for all test compounds analyzed were compared as described by Tallarida and Murray, Manual of Pharmacologic Calculations, Page 11 (Springer Verlag, New York, 1981)).
All ED50 doses calculated are also presented in Table 1 hereinbelow under the heading "WRITHING ASSAY," but as whole numbers.

Row | Compound | PGE2 antagonism in guinea pig ileum: Dose Ratio at 3 × 10^-6 M [1] | Writhing assay: number of mice out of eight or ten in which test compound produced analgesia [2] | further results
1 | O=C1OC(c2cccnc2)C2c3ccccc3Oc3ccc(Cl)cc3N12 (mixture of isomers) [Compounds 9a and 9b (Mixture), 6-chloro-1,13b-dihydro-1-(3-pyridyl)-3H-dibenz[b,f]-oxazolo[3,4-d][1,4]oxazepin-3-one] | 1.5 | – | –
2 | O=C1O[C@@H](c2ccncc2)[C@@H]2c3ccccc3Oc3ccc(Cl)cc3N12 (relative stereo) [Compound 6, trans-6-chloro-1,13b-dihydro-1-(4-pyridyl)-3H-dibenz-[b,f]oxazolo[3,4-d][1,4]oxazepin-3-one] | – | 5/10 | PGE2 antagonism in guinea pig ileum: PA2 Value ([1]; Schild plot): 7.15
3 | O=C1O[C@@H](c2ccncc2)[C@H]2c3ccccc3Oc3ccc(Cl)cc3N12 (relative stereo) [Compound 7, cis-6-chloro-1,13b-dihydro-1-(4-pyridyl)-3H-dibenz[b,f]oxazolo-[3,4-d][1,4]oxazepin-3-one] | 1.5 | 9/10 | –
4 | O=C1O[C@@H](c2ccccn2)[C@@H]2c3ccccc3Oc3ccc(Cl)cc3N12 (relative stereo) [Compound 11, cis-6-chloro-1,13b-dihydro-1-(2-pyridyl)-3H-dibenz[b,f]oxazolo[3,4-d][1,4]-oxazepin-3-one] | 8.6 | 2/8 | –
5 | COC(=O)c1ccc([C@@H]2OC(=O)N3c4cc(Cl)ccc4Oc4ccccc4[C@@H]23)cc1 (relative stereo) [Compound 17, 6-chloro-1,13b-dihydro-1-(4-carboxymethylphenyl)-3H-dibenz[b,f]-oxazolo[3,4-d][1,4]-oxazepin-3-one] | 2.3 | – | –
6 | O=C1OC(c2ccccc2)C2c3ccccc3Oc3ccc(Cl)cc3N12 (single isomer, unassigned) [Compound 3, 6-chloro-1,13b-dihydro-1-phenyl-3H-dibenz[b,f]oxazolo-[3,4-d][1,4]oxazepin-3-one] | 43.6 | 3/10 | –
7 | O=C1OC(c2ccccc2)C2c3ccccc3Oc3ccc(Cl)cc3N12 (single isomer, unassigned) [Compound 4, 6-chloro-1,13b-dihydro-1-phenyl-3H-dibenz[b,f]oxazolo-[3,4-d][1,4]oxazepin-3-one] | 0.87 | 3/10 | –
8 | O=C1N2C=Cc3ccccc3C2C2c3ccccc3Oc3ccc(Cl)cc3N12 (single isomer, unassigned) [Compound 28, 12-Chloro-15H-benz[b]isoquino[2',1':3,4]imidazo-1,5-d][benzoxazepin-15-one] | 3.5 | – | –
9 | O=C1OC(c2ccncc2)c2c(Cl)ccc3c2N1Cc1ccccc1O3 (single isomer, unassigned; (+)) [Compound 5a, (+)-4-chloro-3-(4-pyridyl)-1H,3H,12H-[3,1]benzoxazino-[8,1-b,c][1,4]benzoxazepin-1-one] | 5.2 | – | Writhing assay: number of mice out of eight or ten in which test compound produced analgesia ([2]; 30 mg/kg): 8/10
10 | O=C1OC(c2cccnc2)c2c(Cl)ccc3c2N1Cc1ccccc1O3 (centres unmarked) [Compound 8, 4-chloro-3-(3-pyridyl)-1H,3H,12H-[3,1]-benzoxazino-[8,1-b,c][1,4]benzoxazepin-1-one] | – | 5/10 | –
11 | O=C1OC(c2ccsc2)C2c3ccccc3Oc3ccc(Cl)cc3N12 (centres unmarked) [Compound 12, 6-chloro-1,13b-dihydro-1-(3-thienyl)-3H-dibenz[b,f]oxazolo[3,4-d][1,4]-oxazepin-3-one] | 1.9 | – | –
12 | O=C1OC(c2ccco2)c2c(Cl)ccc3c2N1Cc1ccccc1O3 (centres unmarked) [Compound 13, 4-chloro-3-(-2-furyl)-1H,3H,12H-[3,1]-benzoxazino-[8,1-b,c][1,4]benzoxazepin-1-one] | 4.4 | – | –
13 | O=C(O)Cc1ccc(C2OC(=O)N3c4cc(Cl)ccc4Oc4ccccc4C23)cc1 (centres unmarked) [Compound 16, 6-chloro-1,13b-dihydro-1-(-4-carboxymethlyphenyl)-3H-dibenz[b,f]-oxazolo-[3,4-d][1,4]oxazepin-3-one] | 2.4 | – | –
14 | O=C1OC2(CCC2)C2c3ccccc3Oc3ccc(Cl)cc3N12 (centres unmarked) [Compound 21, 6-Chloro-1,13b-dihydro-3H-spiro[dibenz[b,f]oxazolo-[3,4-d][1,4]oxazepin-1,1'-cyclobutan]-3-one] | 0.9 | – | –
15 | O=C1OC2(CCCC2)C2c3ccccc3Oc3ccc(Cl)cc3N12 (centres unmarked) [Compound 22, 6-chloro-1,13H-spiro[dibenz[b,f]-oxazolo3,4-d][1,4]oxazepin-1,1'-cyclopentane-3-one] | 2.5 | – | –
16 | O=C1N2CCc3ccccc3C2C2c3ccccc3Oc3ccc(Cl)cc3N12 (centres unmarked) [Compound 29, 12-Chloro-17,18-dihydro-15H-benz[b]isoquino[2',1';3,4]-imidazo[1,5-d][1,4]benzoxazepin-15-one] | 3.8 | – | –
17 | O=c1[nH]c(-c2ccccc2)c2n1-c1cc(Cl)ccc1Oc1ccccc1-2 [Compound 30, 6-Chloro-1-phenyl-2H-dibenz[b,f]imidazo[1,5-d]-[1,4]oxazepin-3-one] | 2.1 | – | –
18 | Cn1c(-c2ccccc2)c2n(c1=O)-c1cc(Cl)ccc1Oc1ccccc1-2 [Compound 31] | 1.4 | – | –
19 | O=C1C2c3ccccc3Oc3ccc(Cl)cc3N2C(=O)N1c1ccccc1 (centres unmarked) [Compound 33, 6-Chloro-2-phenyl-2,13bH-dibenz[b,f]imidazo-[1,5-d][1,4]oxazepin-1,3-dione] | 4.3 | – | –
20 | O=C1C2c3ccccc3Oc3ccc(Cl)cc3N2C(=O)N1Cc1ccccc1 (centres unmarked) [Compound 34, 6-Chloro-2-phenylmethyl-2H,13bH-dibenz[b,f]-imidazo-[1,5-d][1,4]oxazepin-1,3-dione] | 3.6 | – | –
